# Legend:
# [1] = Dissolution of capsule in the stomach (statement); format: physicochemical; conditions: 100 to 300 milligrams, with talcum and magnesium stearate
# [2] = system: gastric lining; experiment: General statements on toxicity, gastric tolerance and activity; conditions: capsule, 100 to 300 milligrams, with talcum and magnesium stearate
# [3] = Analgesic activity: Tail pinch test in the mouse; format: in vivo; conditions: for ED50: Mus musculus; for Animals Not protected, TOTALS / Animals Protected, TOTALS: all doses (60-240 mg/kg)
# Source text: Analgesic activity: Tail pinch test in the mouse Described by F. Haffner in Deutsch. med. […] ED50 in this test represents the effective dose in milligrams per kilogram of body weight that is required to increase the reaction time by a factor of at least 3 over the reaction time of the same animal before the test substance had been administered.
# [4] = system: granulation tissue; experiment: Antiinflammatory activity: Formation of granulation tissue in the rat; format: in vivo; conditions: oral; for ED50: Rattus norvegicus, 50% inhibition of granulation tissue, lineal regression; for Weight of granulated tissue ± SEM: control 198 ± 3.63, in mg (unit assumed)
# Source text: Antiinflammatory activity: Formation of granulation tissue in the rat
# Described by N. Pisanti, G. Volterra and A. Meli, in a paper entitled "Pharmacological data on a new antiinflammatory agent", published in Il Farmaco(Ed. Scientifica) vol. 38, page 51 (1973).
# ED50 in this test represents the effective dose in milligrams per kilogram of body weight that is required to inhibit by an increment of 50% the formulation of granulation tissue in the rat.
# [5] = system: edema produced by administration of carageenin; experiment: animal or person; format: in vivo, rat; parameters: Increment of Edema ± SEM: unit not given here; conditions: for ED50: Rattus norvegicus, lineal regression; for "+" animals, printed in place of increment of edema: rat, in vivo
# Source text: Antiinflammatory activity: Acute rat paw edema test Described by C. H. Winter, E. A. Risley and G. W. Nuss in a paper entitled "[…]-induced edema in hind paw of the rat as an assay for antiinflammatory drugs", published in Proc. Soc. Exp. Biol. Med., volume 111, page 544 (1962). ED50 in this test represents the effective dose in milligrams per kilogram of body weight that is required to inhibit edema produced by administration of carageenin to the rat.
# [6] = Analgesic activity: Hot-plate test; format: in vivo; conditions: for Reaction time Half ± SEM: control 103.3 ± 7.9
# [7] = system: mucosa; experiment: Ulcerogenic assay; format: in vivo, rat; conditions: 20 rats, scale 0 no ulcers to 3 ulceration with craters
# Source text: (§1) Described by S. Wong, J. F. Gardocki and T. P. Pruss in J. Pharm. Exper.
# (§2) UD50 represents the dose in milligrams per kilogram of body weight that is based upon a point scale as follows:
# (§3) 3 -- ulceration with craters
# (§4) U.S. 50 Half ulcerogenic dose -- dose which produces 50% of the
# (§5) maximum possible score points in one group of rats.
# [8] = Ulcerogenic assay; format: in vivo, rat; conditions: rat, in vivo; dose which produces 50% of the maximum possible score points in one group of rats; lineal regression; read-out: UD50 (the source's name)
# Source text: as §1, §2, §3, §4, §5
# [9] = 144 h, Table 2, oral, administration 6 days
# [10] = Table 1, oral, 120 mg/kg, control 14.80 ± 0.94
# [11] = Table 1, oral, 180 mg/kg, control 14.80 ± 0.94
# [12] = Table 1, oral, 240 mg/kg, control 14.80 ± 0.94
# [13] = Table 2, oral, 120 mg/kg, administration 6 days
# [14] = Table 2, oral, 120 mg/kg, administration 6 days, control 15.35 ± 0.31
# [15] = Table 2, oral, 180 mg/kg, administration 6 days
# [16] = Table 2, oral, 180 mg/kg, administration 6 days, control 15.35 ± 0.31
# [17] = Table 2, oral, 240 mg/kg, administration 6 days
# [18] = Table 2, oral, 240 mg/kg, administration 6 days, control 15.35 ± 0.31
# [19] = Table 3, I.P., 120 mg/kg, control 12.50 ± 1.66
smiles,measurement,setting,value
CCC(C(=O)[O-])c1ccc(CC(C)C)cc1.[Na+] (centres unmarked),dissolution in the stomach,[1],dissolves well in the stomach
same,gastric upset or irritation,[2],without producing a gastric upset or irritation
"CCC(C(=O)O)c1ccc(CC(C)C)cc1 (centres unmarked) [2-(4-Isobutylphenyl)butyric acid, 2-(4-isobutylphenyl) butyric acid]",ED50,"[3]; oral, reaction time increased by factor of at least 3, lineal regression, read-out: ED50",118 mg/kg
same,% Protection,"[3]; oral, 60 mg/kg",15%
same,Animals Not protected,"[3]; oral, 60 mg/kg",17
same,Animals Protected,"[3]; oral, 60 mg/kg",3
same,% Protection,"[3]; oral, 120 mg/kg",50%
same,Animals Not protected,"[3]; oral, 120 mg/kg",10
same,Animals Protected,"[3]; oral, 120 mg/kg",10
same,% Protection,"[3]; oral, 180 mg/kg",70%
same,Animals Not protected,"[3]; oral, 180 mg/kg",6
same,Animals Protected,"[3]; oral, 180 mg/kg",14
same,% Protection,"[3]; oral, 240 mg/kg",90%
same,Animals Not protected,"[3]; oral, 240 mg/kg",2
same,Animals Protected,"[3]; oral, 240 mg/kg",18
same,"Animals Not protected, TOTALS",[3]; oral,35
same,"Animals Protected, TOTALS",[3]; oral,45
same,ED50,[4],252 mg/kg
same,% Inhibition,[4]; 120 mg/kg,11.11%
same,Weight of granulated tissue ± SEM,[4]; 120 mg/kg,176 ± 13.09
same,% Inhibition,[4]; 180 mg/kg,34.34%
same,Weight of granulated tissue ± SEM,[4]; 180 mg/kg,130 ± 8.54
same,% Inhibition,[4]; 240 mg/kg,46.46%
same,Weight of granulated tissue ± SEM,[4]; 240 mg/kg,106 ± 9.97
same,ED50,[5]; [9],204 mg/kg
same,ED50,"[5]; ip, Table 3, I.P.",133 mg/kg
same,ED50,"[5]; Table 1, oral",116 mg/kg
same,% Inhibition,"[5]; Table 1, oral, 120 mg/kg",51.01%
same,Increment of Edema ± SEM,[5]; [10],7.25 ± 1.00
same,% Inhibition,"[5]; Table 1, oral, 180 mg/kg",58.10%
same,Increment of Edema ± SEM,[5]; [11],6.20 ± 0.84
same,% Inhibition,"[5]; Table 1, oral, 240 mg/kg",66.21%
same,Increment of Edema ± SEM,[5]; [12],5.00 ± 0.97
same,% Inhibition,[5]; [13],24.03%
same,Increment of Edema ± SEM,[5]; [14],11.66 ± 0.67
same,% Inhibition,[5]; [15],40.97%
same,Increment of Edema ± SEM,[5]; [16],9.06 ± 0.39
same,% Inhibition,[5]; [17],60.06%
same,Increment of Edema ± SEM,[5]; [18],6.13 ± 0.35
same,% Inhibition,"[5]; Table 3, I.P., 120 mg/kg",49.36%
same,Increment of Edema ± SEM,[5]; [19],6.33 ± 0.88
same,% Inhibition,"[5]; Table 3, I.P., 240 mg/kg",64.00%
same,Increment of Edema ± SEM,"[5]; Table 3, I.P., 240 mg/kg, control 12.50 ± 1.66",4.50 ± 1.05
same,% Inhibition,"[5]; Table 3, I.P., 360 mg/kg",92.96%
same,Increment of Edema ± SEM,"[5]; Table 3, I.P., 360 mg/kg, control 12.50 ± 1.66",0.88 ± 0.26
same,% Increase of Reaction time,"[6]; oral, 60 mg/kg",7.0%
same,Reaction time Half ± SEM,"[6]; oral, 60 mg/kg",110.6 ± 7.0 s
same,% Increase of Reaction time,"[6]; oral, 120 mg/kg",35.0%
same,Reaction time Half ± SEM,"[6]; oral, 120 mg/kg",139.5 ± 10.7 s
same,% Increase of Reaction time,"[6]; oral, 180 mg/kg",37.0%
same,Reaction time Half ± SEM,"[6]; oral, 180 mg/kg",142.3 ± 7.6 s
same,% Increase of Reaction time,"[6]; oral, 240 mg/kg",78.4%
same,Reaction time Half ± SEM,"[6]; oral, 240 mg/kg",184.3 ± 13.1 s
same,ED50,"[6]; oral, increase by 50% of reaction time, lineal regression, read-out: ED50",162 mg/kg
same,Point score,[7]; 60 mg/kg/day,2
same,Point score,[7]; 120 mg/kg/day,7
same,Point score,[7]; 240 mg/kg/day,14
"CC(=O)Oc1ccccc1C(=O)O [Aspirin, reference compound]",ED50,[3]; po,115 mg/kg
same,% Protection,"[3]; oral, 60 mg/kg",13.3%
same,Animals Not protected,"[3]; oral, 60 mg/kg",13
same,Animals Protected,"[3]; oral, 60 mg/kg",2
same,% Protection,"[3]; oral, 120 mg/kg",53.3%
same,Animals Not protected,"[3]; oral, 120 mg/kg",7
same,Animals Protected,"[3]; oral, 120 mg/kg",8
same,% Protection,"[3]; oral, 180 mg/kg",73.3%
same,Animals Not protected,"[3]; oral, 180 mg/kg",4
same,Animals Protected,"[3]; oral, 180 mg/kg",11
same,% Protection,"[3]; oral, 240 mg/kg",93.3%
same,Animals Not protected,"[3]; oral, 240 mg/kg",1
same,Animals Protected,"[3]; oral, 240 mg/kg",14
same,"Animals Not protected, TOTALS",[3]; oral,25
same,"Animals Protected, TOTALS",[3]; oral,35
same,% Increase of Reaction time,"[6]; oral, 120 mg/kg",22.7%
same,Reaction time Half ± SEM,"[6]; oral, 120 mg/kg",126.8 ± 13.7 s
same,% Increase of Reaction time,"[6]; oral, 180 mg/kg",57.4%
same,Reaction time Half ± SEM,"[6]; oral, 180 mg/kg",162.6 ± 8.0 s
same,% Increase of Reaction time,"[6]; oral, 240 mg/kg",69.5%
same,Reaction time Half ± SEM,"[6]; oral, 240 mg/kg",175.1 ± 5.9 s
same,ED50,[6]; po,173 mg/kg
"CCCCC1C(=O)N(c2ccccc2)N(c2ccccc2)C1=O [Phenylbutazone, reference compound]",ED50,[4],264 mg/kg
same,% Inhibition,[4]; 120 mg/kg,15.65%
same,Weight of granulated tissue ± SEM,[4]; 120 mg/kg,167 ± 8.25
same,% Inhibition,[4]; 180 mg/kg,35.35%
same,% Inhibition,[4]; 240 mg/kg,44.94%
same,Weight of granulated tissue ± SEM,[4]; 240 mg/kg,109 ± 8.77
same,ED50,[5]; [9],177 mg/kg
same,ED50,"[5]; Table 1, oral",77.1 mg/kg
same,% Inhibition,"[5]; Table 1, oral, 120 mg/kg",56.08%
same,Increment of Edema ± SEM,[5]; [10],6.50 ± 1.02
same,% Inhibition,"[5]; Table 1, oral, 180 mg/kg",64.86%
same,Increment of Edema ± SEM,[5]; [11],5.20 ± 0.41
same,% Inhibition,"[5]; Table 1, oral, 240 mg/kg",70.94%
same,Increment of Edema ± SEM,[5]; [12],4.30 ± 0.89
same,% Inhibition,[5]; [13],34.85%
same,Increment of Edema ± SEM,[5]; [14],10.00 ± 0.73
same,% Inhibition,[5]; [15],42.28%
same,Increment of Edema ± SEM,[5]; [16],8.86 ± 0.36
same,% Inhibition,[5]; [17],69.64%
same,Increment of Edema ± SEM,[5]; [18],4.66 ± 0.54
same,% Inhibition,"[5]; Table 3, I.P., 120 mg/kg",45.36%
same,Increment of Edema ± SEM,[5]; [19],6.83 ± 0.94
same,"""+"" animals, printed in place of increment of edema","[5]; ip, 240 mg/kg",+ four animals
same,"""+"" animals, printed in place of increment of edema","[5]; ip, 360 mg/kg",+ five animals
same,TD50,[8],226 mg/kg
same,Point score,[7]; 60 mg/kg/day,8
same,Point score,[7]; 120 mg/kg/day,17
same,Point score,[7]; 240 mg/kg/day,32
